Experimental data published in PMC11460632, “Chemical modification of hyaluronan oligosaccharides differentially modulates hyaluronan–hyaladherin interactions” (The Journal of Biological Chemistry, 2024).
Entries after “also recorded” stand apart in the source; their conditions may differ. Read-outs that look alike come from different tables or passages of the source.

What was measured:
recombinant human TSG-6 = biological target: T1, recombinant human TSG-6 (Homo sapiens, UniProt P19827+P98066); experiment: In vitro HC-transfer assay (IαI + rhTSG-6, Western blot anti-HC1); assay type: biochemical; conditions: 15 μM HA, 1.8 μM IαI, rhTSG-6, 2 h at 37 °C; for Substrate for HC transfer: Table 6; for Activity as substrate for HC transfer (text): Western blot anti-HC1
T1 construct: TSG-6–mediated HC-transfer assays (using full-length TSG6); purchased R&D Systems
T1 sequence (P98066 18-277): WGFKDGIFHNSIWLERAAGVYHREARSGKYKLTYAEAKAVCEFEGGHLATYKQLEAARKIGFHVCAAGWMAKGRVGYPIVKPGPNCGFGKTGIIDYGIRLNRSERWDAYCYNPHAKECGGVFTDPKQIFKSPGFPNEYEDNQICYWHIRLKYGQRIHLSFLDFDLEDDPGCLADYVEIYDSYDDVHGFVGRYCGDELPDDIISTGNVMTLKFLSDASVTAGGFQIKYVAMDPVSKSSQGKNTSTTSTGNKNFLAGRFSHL
T1 sequence (P19827 35-672 limits assumed): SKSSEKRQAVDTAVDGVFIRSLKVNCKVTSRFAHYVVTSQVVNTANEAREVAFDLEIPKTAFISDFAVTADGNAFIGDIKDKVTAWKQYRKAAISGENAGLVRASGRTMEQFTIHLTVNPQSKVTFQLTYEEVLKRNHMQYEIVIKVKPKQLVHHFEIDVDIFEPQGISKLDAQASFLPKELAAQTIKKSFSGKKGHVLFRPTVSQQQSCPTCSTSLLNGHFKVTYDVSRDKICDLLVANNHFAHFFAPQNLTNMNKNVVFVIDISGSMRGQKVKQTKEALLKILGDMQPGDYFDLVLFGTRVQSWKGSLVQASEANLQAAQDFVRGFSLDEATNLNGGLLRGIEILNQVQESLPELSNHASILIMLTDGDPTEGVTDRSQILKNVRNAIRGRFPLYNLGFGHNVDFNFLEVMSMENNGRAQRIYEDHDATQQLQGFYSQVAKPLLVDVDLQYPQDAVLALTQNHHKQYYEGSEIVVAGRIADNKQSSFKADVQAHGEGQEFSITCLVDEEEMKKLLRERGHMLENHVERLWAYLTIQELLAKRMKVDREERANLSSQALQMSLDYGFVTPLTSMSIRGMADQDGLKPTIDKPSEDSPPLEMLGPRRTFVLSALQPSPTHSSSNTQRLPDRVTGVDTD
Procedure: Covalent transfer of HC from IαI onto unmodified and chemically modified HA oligosaccharides was analyzed using the assay described previously ([26]). All reactions were performed using a buffer of 20 mM Hepes, pH 7.5, 150 mM NaCl, and 5 mM MgCl2. In a “standard” assay, HA oligosaccharides were at 15 μM, human IαI ([97]) 1.8 at μM (based on a molecular weight of 180 kDa), and recombinant human TSG-6 (R&D Systems) at 2.8 μM (based on a molecular weight of 35 kDa). Reaction mixtures were analyzed by SDS-PAGE using 4 to 12% bis-tris polyacrylamide gels (Invitrogen). For Western blot analysis, proteins were transferred onto nitrocellulose membrane (GE Healthcare) and incubated with antisera against HC1 (CP7, 1:10,000; ([98])). Bound primary antibody was detected using goat-anti-rabbit IgG conjugated to IR dye (LI-COR Biosciences) and blots imaged using an Odyssey Clx near-IR fluorescence imaging system (LICOR Biosciences).

hisCD44_HABD^20–169 = biological target: T2, hisCD44_HABD^20–169 (Homo sapiens, UniProt P16070); experiment: MST of HA oligosaccharides binding to hisCD44_HABD^20–169; conditions: for Kd: 10 mM Hepes pH 7.5, 150 mM NaCl, 0.05% Tween-20, 25 °C, three titrations, read-out: KD; for % Binding affinity hisCD44_HABD^20–169: Table 6, relative to unmodified oligosaccharide of the same length, by MST
T2 construct: A novel construct consisting of residues 20 to 169 of human CD44 and an N-terminal six-histidine tag; made in house
T2 sequence (P16070 20-169): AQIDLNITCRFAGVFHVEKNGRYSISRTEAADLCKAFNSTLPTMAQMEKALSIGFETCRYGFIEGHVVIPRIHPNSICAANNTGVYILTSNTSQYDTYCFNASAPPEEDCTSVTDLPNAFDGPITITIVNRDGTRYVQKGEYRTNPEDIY
Procedure: For hisCD44_HABD^20–169, interactions with HA oligosaccharides were assessed using MST. Protein (200 nM) was labeled with 5 μM red-Tris-NTA-650 dye following the manufacturer’s instructions in 10 mM Hepes, pH 7.4, 150 mM NaCl, 0.05% (v/v) Tween-20 (interaction buffer). Stock solutions of HA oligosaccharides (5 mM in interaction buffer) were serially diluted (1:1 in interaction buffer) 16 times before each concentration was mixed with an equal volume of labeled protein (10 nM final concentration hisCD44_HABD^20–169). Samples were loaded into standard glass capillaries (NanoTemper) and thermophoresis measured at 25 °C (with active temperature control) using a Monolith NT.115pico instrument (NanoTemper) running NT Control software (version 1.0.1). All experiments were performed in triplicate and data analyzed with the “KD fit model” in the NT Analysis software (version 2.0.2).

Link_TSG6 = biological target: T3, Link_TSG6 (Homo sapiens, UniProt P98066); experiment: ITC of HA oligosaccharides binding to Link_TSG6; conditions: for N / ΔG / ΔH / −TΔS: 25 °C, 5 mM MES pH 6.0, mean ± SEM; for N: 0.029 mM Link_TSG6, 0.29 mM oligosaccharide, four titrations
T3 construct: made in house
T3 sequence (P98066 36-129 limits assumed): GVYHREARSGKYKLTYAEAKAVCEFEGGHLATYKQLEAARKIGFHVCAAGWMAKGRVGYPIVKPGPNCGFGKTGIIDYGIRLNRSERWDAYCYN
Procedure: ITC experiments were performed using a MicroCal PEAQ-ITC instrument (Malvern Instruments). Oligosaccharide stock solutions were prepared at 0.29 mM (in 5 mM MES, pH 6.0) and injected (18 × 2 μl with 120 s spacing between injections) into the cell containing ∼200 μl Link_TSG6 (0.029 mM) in matched buffer at 25 °C. Data were fit to a one site binding model, after subtracting the heats from the last three injections to account for heat of dilution of the oligosaccharide into buffer. Each oligosaccharide was analyzed in four independently performed ITC experiments.

Row | Compound | Substrate for HC transfer (recombinant human TSG-6) | Activity as substrate for HC transfer (text) (recombinant human TSG-6) | N (Link_TSG6; Table 1, ITC) | ΔG (Link_TSG6; Table 1, ITC) | ΔH (Link_TSG6; Table 1, ITC) | −TΔS (Link_TSG6; Table 1, ITC) | also measured
1 | CC(=O)N[C@H]1[C@H](O[C@H]2[C@H](O)[C@@H](O)[C@H](O[C@@H]([C@H](O)[C@H](O)CO)[C@H](CNc3cccc(C(=O)O)c3)NC(C)=O)O[C@@H]2C(=O)O)O[C@H](CO)[C@@H](O)[C@@H]1O[C@@H]1O[C@H](C(=O)O)[C@@H](O)[C@H](O)[C@H]1O [HA4-3AA] | No |  |  |  |  |  | % of binding to hisCD44_HABD^20–169 compared to the unmodified oligosaccharide of the same length (hisCD44_HABD^20–169; MST): 260%; % HAn^AN: percentage of binding affinity (KB) compared to the unmodified oligosaccharide of the same length (hisCD44_HABD^20–169; Table 2, MST): 260%; Kd (hisCD44_HABD^20–169; Table 2, MST, mean (±SD)): 845 µM; % Binding affinity hisCD44_HABD^20–169 (hisCD44_HABD^20–169): 260%
2 | COc1ccc(C(=O)O)c(NC[C@H](NC(C)=O)[C@@H](O[C@@H]2O[C@H](C(=O)O)[C@@H](O[C@@H]3O[C@H](CO)[C@@H](O)[C@H](O[C@@H]4O[C@H](C(=O)O)[C@@H](O[C@@H]5O[C@H](CO)[C@@H](O)[C@H](O[C@@H]6O[C@H](C(=O)O)[C@@H](O)[C@H](O)[C@H]6O)[C@H]5NC(C)=O)[C@H](O)[C@H]4O)[C@H]3NC(C)=O)[C@H](O)[C@H]2O)[C@H](O)[C@H](O)CO)c1 [HA6-2A4MBA] | Yes | weak substrates; also recorded: could become covalently coupled to an HC |  |  |  |  | % of binding to Link_TSG6 compared to the unmodified oligosaccharide of the same length (Link_TSG6; ITC): 238%; Fold increase in affinity for Link_TSG6 compared to the unmodified oligosaccharide (Link_TSG6; ITC): 2.4 fold; Kd (Link_TSG6; ITC, read-out: KD for Link_TSG6): 0.46 µM; N (Link_TSG6; Table 4, ITC): 1.00 ± 0.02; ΔG (Link_TSG6; Table 4, ITC): -8.64 ± 0.04 kcal/mol; ΔH (Link_TSG6; Table 4, ITC): -10.07 ± 0.28 kcal/mol; −TΔS (Link_TSG6; Table 4, ITC): 1.44 ± 0.25 kcal•mol^a1; % Binding affinity Link_TSG6 (Link_TSG6; Table 6, relative to unmodified oligosaccharide of the same length, by ITC): 238%; % of binding to hisCD44_HABD^20–169 compared to the unmodified oligosaccharide of the same length (hisCD44_HABD^20–169; MST): 52%; % HAx^AN: percentage of binding affinity (KB) compared to the unmodified oligosaccharide of the same length (hisCD44_HABD^20–169; Table 5, MST): 52%; Kd (hisCD44_HABD^20–169; Table 5, MST, mean ± SD): 198 ± 29 µM; % Binding affinity hisCD44_HABD^20–169 (hisCD44_HABD^20–169): 52%
3 | CC(=O)N[C@H]1[C@H](O[C@H]2[C@H](O)[C@@H](O)[C@H](O[C@H]3[C@H](O)[C@@H](CO)O[C@@H](O[C@H]4[C@H](O)[C@@H](O)[C@H](O[C@@H]([C@H](O)[C@H](O)CO)[C@H](CNc5ccccc5C(=O)O)NC(C)=O)O[C@@H]4C(=O)O)[C@@H]3NC(C)=O)O[C@@H]2C(=O)O)O[C@H](CO)[C@@H](O)[C@@H]1O[C@@H]1O[C@H](C(=O)O)[C@@H](O)[C@H](O)[C@H]1O [HA6-2AA] | Yes | good substrates; also recorded: could become covalently coupled to an HC | 1.03 ± 0.02 | -8.50 ± 0.04 kcal/mol | -7.84 ± 0.43 kcal/mol | -0.66 ± 0.41 kcal/mol | 
4 | CC(=O)N[C@H]1[C@H](O[C@H]2[C@H](O)[C@@H](O)[C@H](O[C@H]3[C@H](O)[C@@H](CO)O[C@@H](O[C@H]4[C@H](O)[C@@H](O)[C@H](O[C@@H]([C@H](O)[C@H](O)CO)[C@H](CNc5cccc(C(=O)O)c5)NC(C)=O)O[C@@H]4C(=O)O)[C@@H]3NC(C)=O)O[C@@H]2C(=O)O)O[C@H](CO)[C@@H](O)[C@@H]1O[C@@H]1O[C@H](C(=O)O)[C@@H](O)[C@H](O)[C@H]1O [HA6-3AA] | No | No HC•HA6 complexes were observed | 1.05 ± 0.02 | -8.61 ± 0.10 kcal/mol | -6.30 ± 0.11 kcal/mol | -2.21 ± 0.83 kcal/mol | Activity as substrate for HC transfer (text) (recombinant human TSG-6; listed as HA63AA): could become covalently coupled to an HC
5 | CC(=O)N[C@H]1[C@H](O[C@H]2[C@H](O)[C@@H](O)[C@H](O[C@H]3[C@H](O)[C@@H](CO)O[C@@H](O[C@H]4[C@H](O)[C@@H](O)[C@H](O[C@@H]([C@H](O)[C@H](O)CO)[C@H](CNc5ccc(C(=O)O)cc5)NC(C)=O)O[C@@H]4C(=O)O)[C@@H]3NC(C)=O)O[C@@H]2C(=O)O)O[C@H](CO)[C@@H](O)[C@@H]1O[C@@H]1O[C@H](C(=O)O)[C@@H](O)[C@H](O)[C@H]1O [HA6-4AA] | Yes | weak substrates | 1.02 ± 0.05 | -8.40 ± 0.08 kcal/mol | -7.57 ± 0.26 kcal/mol | -0.83 ± 0.34 kcal/mol | 
6 | CC(=O)N[C@H]1[C@H](O[C@H]2[C@H](O)[C@@H](O)[C@H](O[C@H]3[C@H](O)[C@@H](CO)O[C@@H](O[C@H]4[C@H](O)[C@@H](O)[C@H](O[C@H]5[C@H](O)[C@@H](CO)O[C@@H](O[C@H]6[C@H](O)[C@@H](O)[C@H](O[C@@H]([C@H](O)[C@H](O)CO)[C@H](CNc7ccccc7C(=O)O)NC(C)=O)O[C@@H]6C(=O)O)[C@@H]5NC(C)=O)O[C@@H]4C(=O)O)[C@@H]3NC(C)=O)O[C@@H]2C(=O)O)O[C@H](CO)[C@@H](O)[C@@H]1O[C@@H]1O[C@H](C(=O)O)[C@@H](O)[C@H](O)[C@H]1O [HA8-2AA] | Yes | retained full activity as substrates | 1.06 ± 0.03 | -7.83 ± 0.13 kcal/mol | -12.55 ± 0.59 kcal/mol | 4.69 ± 0.73 kcal/mol | 
7 | CC(=O)N[C@H]1[C@H](O[C@H]2[C@H](O)[C@@H](O)[C@H](O[C@H]3[C@H](O)[C@@H](CO)O[C@@H](O[C@H]4[C@H](O)[C@@H](O)[C@H](O[C@H]5[C@H](O)[C@@H](CO)O[C@@H](O[C@H]6[C@H](O)[C@@H](O)[C@H](O[C@@H]([C@H](O)[C@H](O)CO)[C@H](CNc7cccc(C(=O)O)c7)NC(C)=O)O[C@@H]6C(=O)O)[C@@H]5NC(C)=O)O[C@@H]4C(=O)O)[C@@H]3NC(C)=O)O[C@@H]2C(=O)O)O[C@H](CO)[C@@H](O)[C@@H]1O[C@@H]1O[C@H](C(=O)O)[C@@H](O)[C@H](O)[C@H]1O [HA8-3AA] | Yes |  | 1.05 ± 0.03 | -8.95 ± 0.13 kcal/mol | -8.53 ± 0.33 kcal/mol | -0.60 ± 0.09 kcal/mol | 
8 | CC(=O)N[C@H]1[C@H](O[C@H]2[C@H](O)[C@@H](O)[C@H](O[C@H]3[C@H](O)[C@@H](CO)O[C@@H](O[C@H]4[C@H](O)[C@@H](O)[C@H](O[C@H]5[C@H](O)[C@@H](CO)O[C@@H](O[C@H]6[C@H](O)[C@@H](O)[C@H](O[C@@H]([C@H](O)[C@H](O)CO)[C@H](CNc7ccc(C(=O)O)cc7)NC(C)=O)O[C@@H]6C(=O)O)[C@@H]5NC(C)=O)O[C@@H]4C(=O)O)[C@@H]3NC(C)=O)O[C@@H]2C(=O)O)O[C@H](CO)[C@@H](O)[C@@H]1O[C@@H]1O[C@H](C(=O)O)[C@@H](O)[C@H](O)[C@H]1O [HA8-4AA] | Yes | somewhat weaker substrate than HA8^AN | 0.86 ± 0.02 | -8.37 ± 0.04 kcal/mol | -11.53 ± 0.25 kcal/mol | 3.17 ± 0.26 kcal/mol | 
